According to patent US10975068B2, “6-aminopyridin-3-yl thiazoles as modulators of RORγT” (Janssen Pharmaceutica NV, priority 2016, dated 2021):
pIC50, pKd: −log10 of the molar value. Where two headings read alike, the source gives them in different places.

How the values were obtained:
full-length human RORγt = full-length human RORγt (Homo sapiens (Human), UniProt P51449); experiment: RORγt (full-length human) reporter assay, Conditions B or C; format: cell-based; settings: for inhibition at 3 µM: at 3 μM compound concentration, read-out: RORγt (FL) Reporter Assay B or C, % inhibition; for pIC50: read-out: RORγt (FL) Reporter Assay B or C, IC50; for RORγt (FL) Reporter Assay B or C, % inhibition (value marked *): marked *: footnote not given; for IC50: RORγt (FL) Reporter Assay B or C, IC50 (μM)
In short: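 HEK293T cells transiently co-transfected with GAL4-DBD–full-length human RORγt (nt 142-1635, NM_001001523.1) plus GAL4-firefly and CMV-Renilla luciferase reporters; compounds added 4-6 h post-transfection for 16-20 h in 1.3% FBS, 0.1% DMSO. Firefly signal normalized to DMSO and saturating reference compound, then to Renilla; IC50 from concentration plots.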

[1] = biological target: human RORγt ligand binding domain (RORγt LBD) (Homo sapiens (Human), UniProt P51449); experiment: RORγt ThermoFluor® assay (thermal shift binding); settings: for pKd: read-out: ThermoFluor® Assay, Kd
In short: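 His-tagged human RORγt LBD (0.065 mg/mL) with 60 μM 1,8-ANS in 100 mM Hepes pH 7.0, 10 mM NaCl, 2.5 mM GSH, 0.002% Tween-20 was heated at 1 °C/min.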

human RORγt ligand binding domain (RORγt LBD), sequence (P51449 other isoform, or with tags, fused parts or gaps): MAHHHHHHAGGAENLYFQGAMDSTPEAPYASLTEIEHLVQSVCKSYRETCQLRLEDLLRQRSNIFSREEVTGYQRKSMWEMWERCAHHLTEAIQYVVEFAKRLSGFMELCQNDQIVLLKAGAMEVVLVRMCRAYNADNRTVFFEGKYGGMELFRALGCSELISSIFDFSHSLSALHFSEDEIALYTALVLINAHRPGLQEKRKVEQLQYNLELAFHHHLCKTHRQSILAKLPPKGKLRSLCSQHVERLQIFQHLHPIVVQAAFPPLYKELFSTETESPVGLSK
full-length human RORγt, sequence (P51449 other isoform, or with tags, fused parts or gaps): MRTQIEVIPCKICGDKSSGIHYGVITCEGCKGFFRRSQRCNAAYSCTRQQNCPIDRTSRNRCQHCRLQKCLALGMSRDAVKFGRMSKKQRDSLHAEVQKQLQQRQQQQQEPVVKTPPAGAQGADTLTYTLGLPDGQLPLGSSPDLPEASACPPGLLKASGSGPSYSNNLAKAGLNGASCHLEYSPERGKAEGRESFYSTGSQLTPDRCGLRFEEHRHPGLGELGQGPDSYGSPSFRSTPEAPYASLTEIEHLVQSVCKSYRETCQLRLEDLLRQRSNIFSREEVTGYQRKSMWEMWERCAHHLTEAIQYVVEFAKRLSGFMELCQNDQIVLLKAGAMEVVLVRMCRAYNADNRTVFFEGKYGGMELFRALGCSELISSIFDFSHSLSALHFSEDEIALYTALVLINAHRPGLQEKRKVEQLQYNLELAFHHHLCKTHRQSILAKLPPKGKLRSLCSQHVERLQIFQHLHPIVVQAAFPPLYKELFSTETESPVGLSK

Structure (SMILES) | inhibition at 3 µM (full-length human RORγt) [%] | pIC50 (full-length human RORγt) | pKd [1] | pIC50 (full-length human RORγt; Conditions B or C) | RORγt (FL) Reporter Assay B or C, % inhibition (value marked *) (full-length human RORγt; Conditions B or C) | IC50 (full-length human RORγt; Conditions B or C) [µM] | Kd ([1]; ThermoFluor® Assay, Kd (μM)) [µM]
C[C@H]1CCCN1C(=O)c1nc(C(=O)NC[C@@H](O)CO)sc1-c1cnc(NC(C)(C)C)cc1C(F)(F)F [Example 345, 5-[6-(tert-Butylamino)-4-(trifluoromethyl)-3-pyridyl]-N-[(2R)-2,3-dihydroxypropyl]-4-[(2S)-2-methylpyrrolidine-1-carbonyl]thiazole-2-carboxamide] | 111 | 7.20 | 7.80 | – | – | – | –
C[C@H](Nc1cc(C(F)F)c(-c2sc(C(=O)N[C@H]3CC[C@H](O)C3)nc2C(=O)N2C3CCC2CC3)cn1)C(F)(F)F [Example 411, 4-((1s,4s)-7-Azabicyclo[2.2.1]heptane-7-carbonyl)-5-[4-(difluoromethyl)-6-[[(1S)-2,2,2-trifluoro-1-methyl-ethyl]amino]-3-pyridyl]-N-[(1S,3S)-3-hydroxycyclopentyl]thiazole-2-carboxamide] | 100 | 6.96 | 8.44 | – | – | – | –
CC[C@H](Nc1cc(C(F)F)c(-c2sc(C(=O)N3CC4CC(C3)O4)nc2C(=O)N2CCC[C@@H]2C)cn1)C(F)(F)F [Example 392, [5-[4-(Difluoromethyl)-6-[[(1S)-1-(trifluoromethyl)propyl]amino]-3-pyridyl]-2-(6-oxa-3-azabicyclo[3.1.1]heptane-3-carbonyl)thiazol-4-yl]-[(2S)-2-methylpyrrolidin-1-yl]methanone] | 102 | 6.89 | 7.36 | – | – | – | –
C[C@H]1CCCN1C(=O)c1nc(C(=O)NCC(C)(C)O)sc1-c1cnc(NC(C)(C)C2CC2)cc1C(F)F [Example 105, (S)-5-(6-((2-Cyclopropylpropan-2-yl)amino)-4-(difluoromethyl)pyridin-3-yl)-N-(2-hydroxy-2-methylpropyl)-4-(2-methylpyrrolidine-1-carbonyl)thiazole-2-carboxamide] | – | – | 8.70 | 7.82 | 116* % | – | –
CC1(Nc2cc(C(F)F)c(-c3sc(C(=O)N[C@H]4C[C@H](O)C4)nc3C(=O)N3C4CCC3CC4)cn2)CCC1 [Example 330, 4-((1s,4s)-7-Azabicyclo[2.2.1]heptane-7-carbonyl)-5-(4-(difluoromethyl)-6-((1-methylcyclobutyl)amino)pyridin-3-yl)-N-((1r,3R)-3-hydroxycyclobutyl)thiazole-2-carboxamide] | 93 | 7.80 | 8.38 | – | – | – | –
CC[C@@H](Nc1cc(C(F)(F)F)c(-c2sc(C(=O)NCC(C)(C)O)nc2C(=O)N2C3CCC2CC3)cn1)C1CC1 (stereo in doubt) [Example 131] | – | – | – | – | 107* % | 0.03 | 0.0014
C[C@@H](Nc1cc(C(F)F)c(-c2sc(C(=O)NCC(C)(C)O)nc2C(=O)N2CCC[C@@H]2C)cn1)C1CC1 [Example 50, 5-(6-(((R)-1-Cyclopropylethyl)amino)-4-(difluoromethyl)pyridin-3-yl)-N-(2-hydroxy-2-methylpropyl)-4-((S)-2-methylpyrrolidine-1-carbonyl)thiazole-2-carboxamide] | – | – | 7.15 | 7.24 | 100* % | – | –
C[C@H](Nc1cc(C(F)F)c(-c2sc(C(=O)N[C@H](C)C(C)(C)O)nc2C(=O)N2CCC[C@@H]2C)cn1)C(F)(F)F [Example 200, 5-(4-(Difluoromethyl)-6-(((S)-1,1,1-trifluoropropan-2-yl)amino)pyridine-3-yl)-N—((R)-3-hydroxy-3-methylburan-2-yl)-4-((S)-2-methylpyrrolidine-1-carbonyl)thiazole-2-carboxamide] | – | – | 7.92 | 6.70 | 104* % | – | –
C[C@H]1CCCN1C(=O)c1nc(C(=O)N[C@H]2C[C@H](S(C)(=O)=O)C2)sc1-c1cnc(NC2CCCC2)cc1C(F)F [Example 72, 5-(6-(Cyclopentylamino)-4-(difluoromethyl)pyridin-3-yl)-4-((S)-2-methylpyrrolidine-1-carbonyl)-N-((1r,3r)-3-(methylsulfonyl)cyclobutyl)thiazole-2-carboxamide] | – | – | 7.46 | 7.05 | 104* % | – | –
CC[C@H](Nc1cc(C(F)F)c(-c2sc(C(=O)N[C@@H]3COC[C@H]3O)nc2C(=O)N2C3CCC2CC3)cn1)C(F)(F)F [Example 208, 4-((1s,4s)-7-Azabicyclo[2.2.1]heptane-7-carbonyl)-5-(4-(difluoromethyl)-6-(((1S)-1-(trifluoromethyl)propyl)amino)-3-pyridyl)-N-((3R,4S)-4-hydroxytetrahydrofuran-3-yl)thiazole-2-carboxamide] | – | – | 8.36 | 7.27 | 101* % | – | –
CC[C@H](Nc1cc(C(F)F)c(-c2sc(C(=O)N[C@H]3COC[C@@H]3O)nc2C(=O)N2C3CCC2CC3)cn1)C(F)(F)F [Example 209, 4-((1s,4s)-7-Azabicyclo[2.2.1]heptane-7-carbonyl)-5-(4-(difluoromethyl)-6-(((1S)-1-(trifluoromethyl)propyl)amino)-3-pyridyl)-N-((3S,4R)-4-hydroxytetrahydrofuran-3-yl]thiazole-2-carboxamide] | – | – | 8.47 | 7.34 | 99* % | – | –
C[C@H]1CCCN1C(=O)c1nc(C(=O)N[C@H]2C[C@H](O)C2)sc1-c1cnc(NC(C)(C)C)cc1C(F)(F)F [Example 258, 5-[6-(tert-Butylamino)-4-(trifluoromethyl)-3-pyridyl]-N-((1r,3S)-3-hydroxycyclobutyl)-4-[(2S)-2-methylpyrrolidine-1-carbonyl]thiazole-2-carboxamide] | 110 | 7.19 | 8.46 | – | – | – | –
CC[C@H](Nc1cc(C(F)F)c(-c2sc(C(=O)N[C@H](C)CO)nc2C(=O)N2C3CCC2CC3)cn1)C(F)(F)F [Example 227, 4-((1s,4s)-7-Azabicyclo[2.2.1]heptane-7-carbonyl)-5-(4-(difluoromethyl)-6-(((1S)-1-(trifluoromethyl)propyl)amino)-3-pyridyl)-N-((1R)-2-hydroxy-1-methyl-ethyl)thiazole-2-carboxamide] | – | – | 8.34 | – | 95* % | 0.014 | –
CC[C@H](Nc1cc(C(F)F)c(-c2sc(C(=O)N[C@@H](C)C(C)(C)O)nc2C(=O)N2C3CCC2CC3)cn1)C(F)(F)F [Example 248] | – | – | 8.47 | 7.80 | 102* % | – | –

The next lines start with results.

inhibition at 3 µM (full-length human RORγt) [%] | pIC50 (full-length human RORγt) | pKd [1] | pIC50 (full-length human RORγt; Conditions B or C) | Structure (SMILES) | RORγt (FL) Reporter Assay B or C, % inhibition (value marked *) (full-length human RORγt; Conditions B or C) | IC50 (full-length human RORγt; Conditions B or C) [µM] | Kd ([1]; ThermoFluor® Assay, Kd (μM)) [µM]
105 | 7.49 | 9.11 | – | C[C@H](Nc1cc(C(F)F)c(-c2sc(C(=O)N[C@H]3CCC[C@@H]3O)nc2C(=O)N2CC(F)(F)C[C@@H]2C)cn1)C(F)(F)F [Example 418, 4-[(2S)-4,4-Difluoro-2-methyl-pyrrolidine-1-carbonyl]-5-[4-(difluoromethyl)-6-[[(1S)-2,2,2-trifluoro-1-methyl-ethyl]amino]-3-pyridyl]-N-[(1S,2S)-2-hydroxycyclopentyl]thiazole-2-carboxamide] | – | – | –
121 | 8.32 | 8.80 | – | C[C@H]1CCCN1C(=O)c1nc(C(=O)NC2CCOCC2)sc1-c1cnc(NC(C)(C)C)cc1C(F)(F)F [Example 374, 5-[6-(tert-Butylamino)-4-(trifluoromethyl)-3-pyridyl]-4-[(2S)-2-methylpyrrolidine-1-carbonyl]-N-tetrahydropyran-4-yl-thiazole-2-carboxamide] | – | – | –
127 | 7.43 | 8.47 | – | C[C@H]1CCCN1C(=O)c1nc(C(=O)NC2CCOCC2)sc1-c1cnc(NC(C)(C)C)cc1C(F)F [Example 412, 5-[6-(tert-Butylamino)-4-(difluoromethyl)-3-pyridyl]-4-[(2S)-2-methylpyrrolidine-1-carbonyl]-N-tetrahydropyran-4-yl-thiazole-2-carboxamide] | – | – | –
99 | 7.43 | 8.24 | – | C[C@H]1CCCN1C(=O)c1nc(C(=O)N[C@@H]2COC[C@H]2O)sc1-c1cnc(NC(C)(C)C)cc1C(F)F [Example 402, 5-[6-(tert-Butylamino)-4-(difluoromethyl)-3-pyridyl]-N-[(3R,4S)-4-hydroxytetrahydrofuran-3-yl]-4-[(2S)-2-methylpyrrolidine-1-carbonyl]thiazole-2-carboxamide] | – | – | –
100 | 7.60 | 8.92 | – | CC[C@H](Nc1cc(C(F)F)c(-c2sc(C(=O)N[C@@H]3CC[C@@H](O)C3)nc2C(=O)N2CCC[C@@H]2C)cn1)C(F)(F)F [Example 399, 5-[4-(Difluoromethyl)-6-[[(1S)-1-(trifluoromethyl)propyl]amino]-3-pyridyl]-N-[(1R,3R)-3-hydroxycyclopentyl]-4-[(2S)-2-methylpyrrolidine-1-carbonyl]thiazole-2-carboxamide] | – | – | –
103 | 7.30 | 9.74 | – | CC[C@H](Nc1cc(C(F)F)c(-c2sc(C(=O)N[C@@H]3CCC[C@H]3O)nc2C(=O)N2CC(F)(F)C[C@@H]2C)cn1)C(F)(F)F [Example 425, 4-[(2S)-4,4-Difluoro-2-methyl-pyrrolidine-1-carbonyl]-5-[4-(difluoromethyl)-6-[[(1S)-1-(trifluoromethyl)propyl]amino]-3-pyridyl]-N-[(1R,2R)-2-hydroxycyclopentyl]thiazole-2-carboxamide] | – | – | –
